Our source for the MIC and DPM values is ChEMBL document CHEMBL1144362, “Synthesis and biological evaluation of novel 1,4-naphthoquinone derivatives as antibacterial and antiviral agents” (2005).

In brackets after ≈: the same amount, converted by molar mass. Where only a bound is given, the exact number is not on record here.

As a reminder, the MIC is the lowest concentration that inhibits growth of the organism. Higher therefore signals a less susceptible organism.

In one assay the test system is Staphylococcus aureus. Put plainly: Minimum inhibitory concentration gainst Staphylococcus aureus by broth microdilution technique. It is filed as functional. In general terms: Broth dilution looks for growth in wells or tubes with falling amounts of substance.
The next assay relates to Pseudomonas aeruginosa. Kind of assay: Minimum inhibitory concentration gainst Pseudomonas aeruginosa by broth microdilution technique. The assay is classed as functional.
The next assay concerns Klebsiella pneumoniae. Put plainly: Minimum inhibitory concentration gainst Klebsiella pneumoniae by broth microdilution technique. It is filed as functional.
Another assay has as its system Escherichia coli. Put plainly: Minimum inhibitory concentration gainst Escherichia coli by broth microdilution technique. It is filed as functional.
For the next assay, the system named is Enterococcus faecalis. Put plainly: Minimum inhibitory concentration gainst Streptococcus faecalis by broth microdilution technique. The assay is classed as functional.
Assay [1] can be described thus: Antiviral activity against poliovirus type 2 infected HeLa cells. It is filed as functional, Poliovirus type2.
A short description of assay [2]: Antiviral activity against poliovirus type 2 infected HeLa cells; control=55. It is filed as functional, Poliovirus type2.

Take `CC(SC1=C(O)C(=O)c2ccccc2C1=O)C(=O)O` (stereo not given): the MIC was 50 µg/mL (≈ 180 µM) against Staphylococcus aureus; over 50 µg/mL against Pseudomonas aeruginosa; 50 µg/mL (≈ 180 µM) in the assay with Klebsiella pneumoniae; 50 µg/mL (≈ 180 µM) with Escherichia coli; 50 µg/mL (≈ 180 µM) against Enterococcus faecalis.

For the compound `CC(SC1=CC(=O)c2ccccc2C1=O)C(=O)Nc1cccc2ccccc12` (stereo not given), the MIC was over 50 µg/mL against Staphylococcus aureus; 50 µg/mL (≈ 129 µM) against Pseudomonas aeruginosa; over 50 µg/mL with Klebsiella pneumoniae; over 50 µg/mL in the assay with Escherichia coli; over 50 µg/mL with Enterococcus faecalis.

Regarding `Cc1cccc(NC(=O)C(C)SC2=CC(=O)c3ccccc3C2=O)c1` (stereo not given), the MIC against Staphylococcus aureus, in the assay on Pseudomonas aeruginosa, against Klebsiella pneumoniae, against Escherichia coli and in the assay on Enterococcus faecalis was over 50 µg/mL each time.

Turning to `O=C(O)CSC1=CC(=O)c2c(O)ccc(O)c2C1=O`, the MIC against Staphylococcus aureus, against Pseudomonas aeruginosa, in the assay with Klebsiella pneumoniae, against Escherichia coli and in the assay on Enterococcus faecalis was over 50 µg/mL in each case.

As to `CC(SC1=CC(=O)c2ccccc2C1=O)C(=O)Nc1ccccc1` (stereo not given), the minimal inhibitory concentration (MIC) was 25 µg/mL (≈ 74.1 µM) against Staphylococcus aureus; over 50 µg/mL in the assay with Pseudomonas aeruginosa; over 50 µg/mL in the assay on Klebsiella pneumoniae; 6.25 µg/mL (≈ 18.5 µM) in the assay with Escherichia coli; 12.5 µg/mL (≈ 37 µM) in the assay on Enterococcus faecalis.

For the compound `O=C(CSC1=CC(=O)c2ccccc2C1=O)Nc1ccc([N+](=O)[O-])cc1`, the MIC against Staphylococcus aureus is 25 µg/mL (≈ 67.9 µM); in the assay with Pseudomonas aeruginosa, over 50 µg/mL; against Klebsiella pneumoniae, over 50 µg/mL; against Escherichia coli it was 6.25 µg/mL (≈ 17 µM); against Enterococcus faecalis, 12.5 µg/mL (≈ 33.9 µM).

Regarding `O=C1C2=C(SCCS2)C(=O)c2ccccc21`, the MIC against Staphylococcus aureus is over 50 µg/mL; in the assay with Pseudomonas aeruginosa, 50 µg/mL (≈ 201 µM); in the assay on Klebsiella pneumoniae, over 50 µg/mL; against Escherichia coli, over 50 µg/mL; against Enterococcus faecalis, over 50 µg/mL.

On to `Cc1ccc(NC(=O)C(C)SC2=CC(=O)c3ccccc3C2=O)cc1` (stereo not given), for which the MIC against Staphylococcus aureus, against Pseudomonas aeruginosa, in the assay with Klebsiella pneumoniae, with Escherichia coli and with Enterococcus faecalis was over 50 µg/mL in each case.

In assay [1], `O=C(O)CSC1=CC(=O)c2ccccc2C1=O` registered a DPM of 675.

In the case of `O=C(CSC1=CC(=O)c2ccccc2C1=O)Nc1ccccc1`, the MIC against Staphylococcus aureus is 12.5 µg/mL (≈ 38.7 µM); in the assay on Pseudomonas aeruginosa, over 50 µg/mL; in the assay on Klebsiella pneumoniae, 50 µg/mL (≈ 155 µM); against Escherichia coli, 50 µg/mL (≈ 155 µM); against Enterococcus faecalis, 50 µg/mL (≈ 155 µM).

As for `O=C(CSC1=CC(=O)c2ccccc2C1=O)Nc1cccc2ccccc12`, the MIC is over 50 µg/mL in the assay on Staphylococcus aureus; over 50 µg/mL against Pseudomonas aeruginosa; 25 µg/mL (≈ 66.9 µM) with Klebsiella pneumoniae; 12.5 µg/mL (≈ 33.5 µM) against Escherichia coli; 12.5 µg/mL (≈ 33.5 µM) against Enterococcus faecalis.

As for `CC1=C(SC(C)C(=O)O)C(=O)c2ccccc2C1=O` (stereo not given), the MIC in the assay on Staphylococcus aureus was 25 µg/mL (≈ 90.5 µM); against Pseudomonas aeruginosa, over 50 µg/mL; in the assay on Klebsiella pneumoniae it was over 50 µg/mL; with Escherichia coli it was 50 µg/mL (≈ 181 µM); in the assay on Enterococcus faecalis, 50 µg/mL (≈ 181 µM).

Regarding `COc1ccccc1NC(=O)CSC1=CC(=O)c2ccccc2C1=O`, the minimum inhibitory concentration (MIC) in the assay on Staphylococcus aureus was over 50 µg/mL; in the assay on Pseudomonas aeruginosa it was over 50 µg/mL; against Klebsiella pneumoniae, 25 µg/mL (≈ 70.7 µM); against Escherichia coli, 6.25 µg/mL (≈ 17.7 µM); against Enterococcus faecalis it was over 12.5 µg/mL.

Regarding `Cc1ccccc1NC(=O)CSC1=CC(=O)c2ccccc2C1=O`, the MIC in the assay on Staphylococcus aureus was 12.5 µg/mL (≈ 37 µM); with Pseudomonas aeruginosa, over 50 µg/mL; in the assay on Klebsiella pneumoniae, over 50 µg/mL; against Escherichia coli it was 50 µg/mL (≈ 148 µM); in the assay with Enterococcus faecalis, 50 µg/mL (≈ 148 µM).

Turning to `CC(SC1=CC(=O)c2ccccc2C1=O)C(=O)O` (stereo not given), the MIC is 25 µg/mL (≈ 95.3 µM) against Staphylococcus aureus; over 50 µg/mL against Pseudomonas aeruginosa; 50 µg/mL (≈ 191 µM) in the assay on Klebsiella pneumoniae; 50 µg/mL (≈ 191 µM) in the assay on Escherichia coli; 50 µg/mL (≈ 191 µM) against Enterococcus faecalis.

Regarding `O=C1C=CC(=O)c2c(O)c3c(c(O)c21)SCCS3`, the MIC against Staphylococcus aureus, against Pseudomonas aeruginosa, with Klebsiella pneumoniae, with Escherichia coli and against Enterococcus faecalis was over 50 µg/mL throughout.

Turning to `CC(SC1=CC(=O)c2ccccc2C1=O)C(=O)Nc1ccc([N+](=O)[O-])cc1` (stereo not given), the MIC was 25 µg/mL (≈ 65.4 µM) with Staphylococcus aureus; over 50 µg/mL with Pseudomonas aeruginosa; over 50 µg/mL in the assay with Klebsiella pneumoniae; 50 µg/mL (≈ 131 µM) with Escherichia coli; 50 µg/mL (≈ 131 µM) in the assay with Enterococcus faecalis.

As for `O=C1CSc2c3c(c4ccccc4c2O1)OC(=O)CS3`, the minimal inhibitory concentration (MIC) against Staphylococcus aureus was over 50 µg/mL; against Pseudomonas aeruginosa it was over 50 µg/mL; in the assay on Klebsiella pneumoniae, 25 µg/mL (≈ 82.1 µM); with Escherichia coli, over 50 µg/mL; against Enterococcus faecalis it was over 50 µg/mL.

With `CC(SC1=CC(=O)c2c(O)ccc(O)c2C1=O)C(=O)O` (stereo not given), the MIC in the assay with Staphylococcus aureus is over 50 µg/mL; in the assay on Pseudomonas aeruginosa, over 50 µg/mL; against Klebsiella pneumoniae, 50 µg/mL (≈ 170 µM); against Escherichia coli, 50 µg/mL (≈ 170 µM); in the assay on Enterococcus faecalis it was 25 µg/mL (≈ 85 µM).

For the compound GENTAMICIN, the MIC against Staphylococcus aureus amounted to 0.78 µg/mL; against Pseudomonas aeruginosa it was 0.78 µg/mL; in the assay with Klebsiella pneumoniae, 0.39 µg/mL.

For `Cc1ccccc1NC(=O)C(C)SC1=CC(=O)c2ccccc2C1=O` (stereo not given), the MIC against Staphylococcus aureus, in the assay with Pseudomonas aeruginosa, in the assay on Klebsiella pneumoniae, in the assay on Escherichia coli and against Enterococcus faecalis was over 50 µg/mL each time.

`COc1ccccc1NC(=O)C(C)SC1=CC(=O)c2ccccc2C1=O` (stereo not given): the MIC against Staphylococcus aureus is over 50 µg/mL; against Pseudomonas aeruginosa, over 50 µg/mL; with Klebsiella pneumoniae, 12.5 µg/mL (≈ 34 µM); in the assay with Escherichia coli, over 50 µg/mL; in the assay on Enterococcus faecalis, over 50 µg/mL.

In the case of `COc1ccc(NC(=O)CSC2=CC(=O)c3ccccc3C2=O)cc1`, the minimum inhibitory concentration (MIC) in the assay with Staphylococcus aureus turned out to be 25 µg/mL (≈ 70.7 µM); against Pseudomonas aeruginosa it was 50 µg/mL (≈ 141 µM); against Klebsiella pneumoniae, 6.25 µg/mL (≈ 17.7 µM); with Escherichia coli, 12.5 µg/mL (≈ 35.4 µM); in the assay with Enterococcus faecalis it was 6.25 µg/mL (≈ 17.7 µM).

As to `Oc1ccc(O)c2c1SCCS2`, the MIC with Staphylococcus aureus, against Pseudomonas aeruginosa, in the assay on Klebsiella pneumoniae, against Escherichia coli and in the assay with Enterococcus faecalis was over 50 µg/mL in each case.

For `COc1ccc(NC(=O)C(C)SC2=CC(=O)c3ccccc3C2=O)cc1` (stereo not given), the MIC in the assay with Staphylococcus aureus was 25 µg/mL (≈ 68 µM); in the assay on Pseudomonas aeruginosa, over 50 µg/mL; in the assay with Klebsiella pneumoniae it was over 50 µg/mL; with Escherichia coli, 50 µg/mL (≈ 136 µM); with Enterococcus faecalis, over 50 µg/mL.

In turn, `O=C1C=CC(=O)c2c(Cl)ccc(O)c21` registered a DPM in assay [2] of 375.
